± gives the expanded uncertainty stated by the source.

Data set [1] is described as follows: Molar enthalpy of transition or fusion. The note with it: Crystal; DSC.
For data set [2] the following is noted: Crystal; DTA.

Take `CCCCCCCCCCCCCCCCCC(=O)OCC(COC(=O)CCCCCCCCCCCCCCCCC)OC(=O)CCCCCCCCCCCCCCCCC` [glycerol trioctadecanoate]: the “Molar enthalpy of transition or fusion” value in data set [1] amounted to 27.7 ± 8.6 kcal/mol. For the same compound, the Normal melting temperature in data set [2] came out at 72.89 ± 0.53 °C.
